Here are results for 13 molecules from US20090018134A1, “Compounds - 945” (AstraZeneca AB, priority 2007, published 2009).

A word on the IC50: it is the concentration that gives 50% inhibition.

The target in the assay is T1, mTOR (Homo sapiens, UniProt P42345).
T1 construct: FLAG; made in house
T1 sequence (P42345 1362-2549): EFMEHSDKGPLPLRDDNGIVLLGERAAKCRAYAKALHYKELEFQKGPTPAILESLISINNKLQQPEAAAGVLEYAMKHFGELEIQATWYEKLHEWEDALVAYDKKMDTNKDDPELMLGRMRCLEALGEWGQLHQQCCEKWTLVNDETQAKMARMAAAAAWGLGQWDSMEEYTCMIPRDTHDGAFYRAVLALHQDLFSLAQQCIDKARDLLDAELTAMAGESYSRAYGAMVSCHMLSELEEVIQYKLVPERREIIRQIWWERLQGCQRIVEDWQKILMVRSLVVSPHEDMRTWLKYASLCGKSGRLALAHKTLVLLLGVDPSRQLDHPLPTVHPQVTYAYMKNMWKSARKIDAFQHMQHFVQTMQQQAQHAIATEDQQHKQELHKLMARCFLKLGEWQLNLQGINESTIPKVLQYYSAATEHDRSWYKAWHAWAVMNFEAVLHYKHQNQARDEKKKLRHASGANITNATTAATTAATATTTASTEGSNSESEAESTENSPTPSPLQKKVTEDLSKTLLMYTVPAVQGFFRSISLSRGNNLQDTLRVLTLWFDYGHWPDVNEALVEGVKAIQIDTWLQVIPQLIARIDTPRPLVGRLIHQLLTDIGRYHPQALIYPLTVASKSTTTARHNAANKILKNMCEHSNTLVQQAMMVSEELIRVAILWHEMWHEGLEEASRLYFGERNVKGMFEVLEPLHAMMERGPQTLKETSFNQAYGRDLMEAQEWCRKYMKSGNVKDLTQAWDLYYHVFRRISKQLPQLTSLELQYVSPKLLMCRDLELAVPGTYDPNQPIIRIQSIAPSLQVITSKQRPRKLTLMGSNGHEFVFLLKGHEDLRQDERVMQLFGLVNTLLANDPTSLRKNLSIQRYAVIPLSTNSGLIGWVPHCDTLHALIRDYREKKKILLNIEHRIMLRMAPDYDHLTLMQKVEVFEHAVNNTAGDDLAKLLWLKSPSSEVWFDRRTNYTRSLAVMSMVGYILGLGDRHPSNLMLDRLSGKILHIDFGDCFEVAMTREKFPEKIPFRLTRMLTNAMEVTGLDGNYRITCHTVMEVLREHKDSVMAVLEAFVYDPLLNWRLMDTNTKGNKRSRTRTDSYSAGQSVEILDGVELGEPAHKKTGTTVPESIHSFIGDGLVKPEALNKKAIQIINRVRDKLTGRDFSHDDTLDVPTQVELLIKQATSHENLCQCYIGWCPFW
Description: In Vitro mTOR Kinase Assay (Echo), Test (a)(ii). The following applies: table of enzyme assay Test (a)(ii); read-out: Test (a)(ii) IC50. It is filed as biochemical. The procedure, abridged:
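Inhibition of truncated mTOR (1362-2549, FLAG-tagged, purified from stably transfected HEK293 cells) is measured as reduced AlphaScreen signal from a phospho-T389-recognising antibody bound to the biotinylated peptide product. Kinase incubation lasts 2 hours at room temperature. Potency is given as IC50.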
Regarding `C[C@H]1COCCN1c1cc(C2(S(=O)(=O)CCCO)CCC2)nc(-c2ccc(NC(=O)Nc3ncns3)cc2)n1` [Example 43s, 1-[4-[4-[1-(3-hydroxypropylsulfonyl)cyclobu-tyl]-6-[(3S)-3-methylmorpholin-4-yl]pyrimidin-2-yl]phenyl]-3-(1,2,4-thiadiazol-5-yl)urea], the IC50 is 6.29 nM.

As for `C[C@H]1COCCN1c1cc(C2(S(=O)(=O)CCCO)CCC2)nc(-c2ccc(NC(=O)Nc3nccs3)cc2)n1` [Example 43t, 1-[4-[4-[1-(3-hydroxypropylsulfonyl)cyclobu-tyl]-6-[(3S)-3-methylmorpholin-4-yl]pyrimdiin-2-yl]phenyl]-3-(1,3-thiazol-2-yl)urea], the IC50 turned out to be 5.45 nM.

On to `CC(=O)NCCS(=O)(=O)C1(c2cc(N3CCOC[C@@H]3C)nc(-c3ccc(NC(=O)NC4CC4)cc3)n2)CC1` [Example 44, N-[2-[1-[2-[4-(Cyclopropylcarbamoylamino)phenyl]-6-[(3S)-3-methylmorpholin-4-yl]pyrimidin-4-yl]cyclopropyl]sulfonylethyl]acetamide], for which the IC50 was found to be 23.4 nM. Under `NC(=O)CS(=O)(=O)C1(c2cc(N3CCOCC3)nc(-c3ccc(NC(=O)NC4CC4)cc3)n2)CC1` [Example 46, 2-[1-[2-[4-(Cyclopropylcarbamoylamino)phenyl]-6-morpholin-4-ylpyrimidin-4-yl]cyclopropyl]sulfonylacetamide] stands 4.56 nM; under `CNC(=O)CS(=O)(=O)C1(c2cc(N3CCOCC3)nc(-c3ccc(NC(=O)NC4CC4)cc3)n2)CC1` [Example 46a], 12.6 nM; under `O=C(Nc1ccc(-c2nc(N3CCOCC3)cc(C3(S(=O)(=O)CCO)CC3)n2)cc1)NC1CC1` [Example 47, 3-Cyclopropyl-1-[4-[4-[1-(2-hydroxyethylsulfonyl)cyclopropyl]-6-morpholin-4-ylpyrimidin-2-yl]phenyl]urea], 15.5 nM. Take `CNC(=O)Nc1ccc(-c2nc(N3CCOCC3)cc(C3(S(=O)(=O)CCO)CC3)n2)cc1` [Example 47a, 1-[4-[4-[1-(2-hydroxyethylsulfonyl)cyclopropyl]-6-morpholin-4-ylpyrimidin-2-yl]phenyl]-3-methylurea]: the IC50 turned out to be 5.4 nM. As to `CCNC(=O)Nc1ccc(-c2nc(N3CCOCC3)cc(C3(S(=O)(=O)CCO)CC3)n2)cc1` [Example 47b, 3-ethyl-1-[4-[4-[1-(2-hydroxyethylsulfonyl)cyclopropyl]-6-morpholin-4-ylpyrimidin-2-yl]phenyl]urea], the IC50 was determined as 14.9 nM. As to `CNC(=O)Nc1ccc(-c2nc(N3CCOC[C@@H]3C)cc(C3(S(=O)(=O)c4ccc(C(=O)N(C)C)cn4)CC3)n2)cc1` [Example 49, N,N-Dimethyl-6-[1-[2-[4-(methylcarbamoylamino)phenyl]-6-[(3S)-3-methylmorpholin-4-yl]pyrimidin-4-yl]cyclopropyl]sulfonylpyridine-3-carboxamide], the IC50 amounted to 1.87 nM. For the molecule `C[C@H]1COCCN1c1cc(C2(S(=O)(=O)c3ccc(C(=O)N(C)C)cn3)CC2)nc(-c2ccc(NC(=O)NC3CC3)cc2)n1` [Example 49a], the IC50 came out at 2.67 nM. Take `CNC(=O)Nc1ccc(-c2nc(N3CCOC[C@@H]3C)cc(C3(S(=O)(=O)c4cccnc4C(=O)N(C)C)CC3)n2)cc1` [Example 50, N,N-Dimethyl-3-[1-[2-[4-(methylcarbamoylamino)phenyl]-6-[(3S)-3-methylmorpholin-4-yl]pyrimidin-4-yl]cyclopropyl]sulfonylpyridine-2-carboxamide]: the IC50 is 10.4 nM. As for `C[C@H]1COCCN1c1cc(C2(S(=O)(=O)c3cccnc3C(=O)N(C)C)CC2)nc(-c2ccc(NC(=O)NC3CC3)cc2)n1` [Example 50a], the IC50 was 7.94 nM. In the case of `CNC(=O)Nc1ccc(-c2nc(N3CCOC[C@@H]3C)cc(C3(S(=O)(=O)CCOC)CC3)n2)cc1` [Example 51, 1-[4-[4-[1-(2-Methoxyethylsulfonyl)cyclopropyl]-6-[(3S)-3-methylmorpholin-4-yl]pyrimidin-2-yl]phenyl]-3-methylurea], the IC50 worked out at 3.32 nM.
